The text below walks through data of patent publication US20260028654A1, “BIOTECHNOLOGICAL PRODUCTION OF MACROCYCLIC LACTONES” (SYMRISE AG, priority 2022, published 2026).

Each structure is given as a SMILES string.

The subject of experiment [1] is cyclopentadecanone monooxygenase (CPDMO). Briefly: Spectro-photometric activity assay (NADPH consumption at 340 nm), cell-free lysate containing CPDMO. Type of experiment: biochemical, Pseudomonas species. To be noted: 0.25 mM Globanone, 0.3 mM NADPH, pH 9.0, 30° C. The source says: (§1) The genes for the two Baeyer-Villiger Monooxygenases (BVMOs) cyclopentadecanone monooxygenase from a Pseudomonas species (CPDMO, Iwaki, H. et al., Appl. Environ. Microbiol. (2006), 72 (4): 2707-2720) and cyclododecanone monooxygenase from a Rhodococcus species (CDMO, Kostichka, K. et al., J. Bacteriol. (2001), 183 (21): 6478-6486) were cloned using standard molecular biology tools. For recombinant enzyme production in Escherichia coli an L-arabinose inducible vector derived from a pBAD plasmid carrying a kanamycin/neomycin resistance gene was used in an E. coli K-12 strain, in which the Larabinose catabolism is disrupted. Glycerol stocks were used to inoculate 5 ml overnight cultures (LB, 100 μg/ml neomycin). […]
(§2) Protein concentrations of the lysates were determined to calculate specific activities (Protein determination by Bradford). The concentrations of total protein in the cell-free extracts (CFEs) were determined using a modified protein-dye binding method as described by Bradford in Anal. Biochem. 72: 248-254 (1976).
(§3) To determine if the two BVMOs were active on Globanone® a spectro-photometric activity assay was applied. The assay makes use of the strong absorbance decrease at 340 nm upon consumption of the NADPH cofactor. […] The decrease of absorbance was followed for 3 minutes before substrate addition to detect potential, unspecific NADPH oxidation. […]

The test system of experiment [2] is cyclododecanone monooxygenase (CDMO). Briefly: Spectro-photometric activity assay (NADPH consumption at 340 nm), cell-free lysate containing CDMO. Type of experiment: biochemical, Rhodococcus species. To be noted: 0.25 mM Globanone, 0.3 mM NADPH, pH 9.0, 30° C.
Description: as §1, §2, §3

In the case of `O=C1CCCCCCC=CCCCCCCC1` [Globanone®], the volumetric activity is given as 0.04 U/ml in experiment [1] (E. coli cell-free lysate containing CPDMO (9.9 mg/ml protein)) and 3.71 U/ml in experiment [2] (E. coli cell-free lysate containing CDMO (18.6 mg/ml protein)). The specific activity in experiment [1] (per mg total cell-free lysate protein, CPDMO lysate) was 0.004 U/mg; in experiment [2] (per mg total cell-free lysate protein, CDMO lysate), 0.20 U/mg.
